Source: PubChem BioAssay AID1963841 (Molecular Pharmacology Branch, DTP, NCI, 2024)
pIC50: −log10 of the molar value.

Tested on: 439559-082-T-J2-PDC spheroid viability
Experiment: Anticancer human tumor 439559-082-T-J2-PDC patient-derived colon adenocarcinoma cell line growth inhibition [POLQ]
Conditions: spheroids with HUVEC and MSC; for pIC50: curve of first compound; for viability, T/C: stronger effect = lower value
Outline: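 Patient-derived tumour cells were co-cultured with HUVEC and mesenchymal stem cells as multicellular spheroids at 37 °C. They were treated with POLQ inhibitors (novobiocin, ART-558, RP6685) alone or combined with other agents. Top concentrations were at or near clinical Cmax (otherwise 10 microM; SN-38 at 1 microM), decreasing in half-log steps.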

[1] = second compound 0.0316 µM, first compound 0.0316 µM
[2] = second compound 0.0316 µM, first compound 0.1 µM
[3] = second compound 0.0316 µM, first compound 0.316 µM
[4] = second compound 0.0316 µM, first compound 1 µM
[5] = second compound 0.0316 µM, first compound 3.16 µM
[6] = second compound 0.0316 µM, first compound 10 µM
[7] = second compound 0.1 µM, first compound 0.0316 µM
[8] = second compound 0.1 µM, first compound 0.1 µM
[9] = second compound 0.1 µM, first compound 0.316 µM
[10] = second compound 0.1 µM, first compound 1 µM
[11] = second compound 0.1 µM, first compound 3.16 µM
[12] = second compound 0.1 µM, first compound 10 µM
[13] = second compound 0.316 µM, first compound 0.0316 µM
[14] = second compound 0.316 µM, first compound 0.1 µM
[15] = second compound 0.316 µM, first compound 0.316 µM
[16] = second compound 0.316 µM, first compound 1 µM
[17] = second compound 0.316 µM, first compound 3.16 µM
[18] = second compound 0.316 µM, first compound 10 µM
[19] = second compound 1 µM, first compound 0.0316 µM
[20] = second compound 1 µM, first compound 0.1 µM
[21] = second compound 1 µM, first compound 0.316 µM
[22] = second compound 1 µM, first compound 1 µM
[23] = second compound 1 µM, first compound 3.16 µM
[24] = second compound 1 µM, first compound 10 µM
[25] = second compound 3.16 µM, first compound 0.0316 µM
[26] = second compound 3.16 µM, first compound 0.1 µM
[27] = second compound 3.16 µM, first compound 0.316 µM
[28] = second compound 3.16 µM, first compound 1 µM
[29] = second compound 3.16 µM, first compound 3.16 µM
[30] = second compound 3.16 µM, first compound 10 µM
[31] = second compound 10 µM, first compound 0.0316 µM
[32] = second compound 10 µM, first compound 0.1 µM
[33] = second compound 10 µM, first compound 0.316 µM
[34] = second compound 10 µM, first compound 1 µM
[35] = second compound 10 µM, first compound 3.16 µM
[36] = second compound 10 µM, first compound 10 µM
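Further: spheroids exposed to compounds for seven days before readout.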
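Wherever viability, T/C is given: 100% = DMSO vehicle control viability.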

`C=CC(=O)N1CCN(c2nc(=O)n(-c3c(C)ccnc3C(C)C)c3nc(-c4c(O)cccc4F)c(F)cc23)C(C)C1` (centres undefined) + Cc1cccc(N(C)C(=O)C2C(O)CCN2c2nc(C)cc(C(F)(F)F)c2C#N)c1 gave a pIC50 (second compound 0.0316 µM) of under 5.00, a pIC50 (second compound 0.1 µM) of under 5.00 and a pIC50 (second compound 0.316 µM) of under 5.00. For the same molecule, the pIC50 (second compound 1 µM) was under 5.00, the pIC50 (second compound 3.16 µM) was under 5.00 and the pIC50 (second compound 10 µM) was under 5.00. For the same molecule, the viability, T/C [1] was 101%, the viability, T/C [2] was 93.8% and the viability, T/C [3] was 95.7%. The viability, T/C [4] was 108%, the viability, T/C [5] was 103% and the viability, T/C [6] was 94.9%. For the same molecule, the viability, T/C [7] was 101%, the viability, T/C [8] was 103% and the viability, T/C [9] was 97%. The viability, T/C [10] was 99.4%, the viability, T/C [11] was 107% and the viability, T/C [12] was 100%. The viability, T/C [13] was 92.7%, the viability, T/C [14] was 96.9% and the viability, T/C [15] was 98%. The viability, T/C [16] was 94.9%, the viability, T/C [17] was 96% and the viability, T/C [18] was 96.5%. The viability, T/C [19] was 107%, the viability, T/C [20] was 97.8% and the viability, T/C [21] was 96.5%. For the same molecule, the viability, T/C [22] was 96.5%, the viability, T/C [23] was 96% and the viability, T/C [24] was 98%. For the same molecule, the viability, T/C [25] was 101%, the viability, T/C [26] was 96.6% and the viability, T/C [27] was 92.4%. For the same molecule, the viability, T/C [28] was 95.6%, the viability, T/C [29] was 96.9% and the viability, T/C [30] was 101%. The viability, T/C [31] was 98.2%, the viability, T/C [32] was 93.8% and the viability, T/C [33] was 88%. The viability, T/C [34] was 83.6%, the viability, T/C [35] was 97.1% and the viability, T/C [36] was 90.2%.
In the case of `O=C(Nc1ccc(O)c(NS(=O)(=O)c2ccc(F)cc2)c1)c1ccc(-c2ccccc2)cc1` + Cc1cccc(N(C)C(=O)C2C(O)CCN2c2nc(C)cc(C(F)(F)F)c2C#N)c1, the pIC50 (second compound 0.0316 µM) was under 5.00, the pIC50 (second compound 0.1 µM) was under 5.00 and the pIC50 (second compound 0.316 µM) was under 5.00. The pIC50 (second compound 1 µM) was under 5.00, the pIC50 (second compound 3.16 µM) was under 5.00 and the pIC50 (second compound 10 µM) was under 5.00. It also gave a viability, T/C [1] of 92%, a viability, T/C [2] of 119% and a viability, T/C [3] of 86.7%. The viability, T/C [4] was 97.3%, the viability, T/C [5] was 103% and the viability, T/C [6] was 102%. For the same molecule, the viability, T/C [7] was 101%, the viability, T/C [8] was 106% and the viability, T/C [9] was 100%. It also gave a viability, T/C [10] of 98.6%, a viability, T/C [11] of 107% and a viability, T/C [12] of 99.8%. The viability, T/C [13] was 101%, the viability, T/C [14] was 108% and the viability, T/C [15] was 92.4%. It also gave a viability, T/C [16] of 96.7%, a viability, T/C [17] of 105% and a viability, T/C [18] of 118%. For the same molecule, the viability, T/C [19] was 96.6%, the viability, T/C [20] was 93.6% and the viability, T/C [21] was 98.4%. It also gave a viability, T/C [22] of 97.7%, a viability, T/C [23] of 101% and a viability, T/C [24] of 115%. The viability, T/C [25] was 98.1%, the viability, T/C [26] was 93.7% and the viability, T/C [27] was 85.7%. For the same molecule, the viability, T/C [28] was 104%, the viability, T/C [29] was 109% and the viability, T/C [30] was 99%. For the same molecule, the viability, T/C [31] was 97.8%, the viability, T/C [32] was 84.6% and the viability, T/C [33] was 107%. The viability, T/C [34] was 86%, the viability, T/C [35] was 104% and the viability, T/C [36] was 109%.
